# Results published in PMC7071032, “In Vitro Inhibition of Hsp90 Protein by Benzothiazoloquinazolinequinones Is Enhanced in The Presence of Ascorbate. A Preliminary In Vivo Antiproliferative Study” (Molecules, 2020).
# Key:
# [1] = tested on: non-tumor fibroblasts AG 1523; assay: MTT reduction assay, non-tumor fibroblasts; format: cell-based; conditions: Homo sapiens, AG1523, 48 h incubation, read-out: IC50 ± SEM AG 1523
# Protocol: (§1) As positive control, two well-known anticancer drugs, namely TAM and 5-FU, were also tested on these cell lines. […] Regarding 5-FU, it is a broad-spectrum chemotherapeutic drug used to treat a variety of malignancies. Particularly, it has a long history of use against bladder tumors.
# (§2) Cell culture conditions were the same as reported elsewhere. Briefly, cell lines were kept in DMEM containing 10% fetal calf serum. In addition, 100 U/mL of penicillin and 100 µg/mL streptomycin from Gibco (Grand Island, NY, USA) were further added. Cell cultures were kept at 37 °C under an atmosphere of 95% air/5% CO2 and 100% humidity. Sodium L-ascorbate, menadione (vitamin K3), TAM, and 5-FU were purchased from Sigma (St. Louis, MO, USA).
# (§3) The cytotoxicity of the quinones was assessed by following the reduction of MTT (3-(4,5-dimethylthiazol-2-yl)-2,5-diphenyltetrazolium bromide) to formazan blue and the capability of cancer cells to proliferate, namely a clonogenic assay.
# (§4) Cells were seeded into 96-well plates at a density of 10,000 cells/well for 24 h and then incubated for 48 h with or without the quinone derivatives. […] The IC50 values were determined using the GraphPad Prism software (San Diego, CA, USA). Further incubation procedures and optical density reading of colored solutions were performed according to Benites et al..
# DU-145 (prostate) cells = assay: MTT reduction assay, DU-145 cells; format: cell-based; conditions: Homo sapiens, DU-145, 48 h, read-out: IC50 ± SEM DU-145
# Protocol: as §1, §2, §3, §4
# [2] = tested on: panel of cancer cells (T24, DU-145, MCF-7); assay: MTT reduction assay, panel of cancer cells (means, ranges, selectivity index); format: cell-based, human; conditions: for MSI: mean selective index: IC50 values of fibroblasts (AG 1523)/IC50 values of tumor cells (T24, DU-145, MCF-7); for IC50: Homo sapiens, read-out: mean IC50 value calculated from the individual IC50 values of the three cancer cell lines
# Protocol: as §1
# Such a selective index was calculated as the ratio between IC50 values of healthy cells/IC50 values in cancer cells.
# as §4
# MCF-7 (breast) cells = assay: MTT reduction assay, MCF-7 cells; format: cell-based; conditions: Homo sapiens, MCF7, 48 h incubation, read-out: IC50 ± SEM MCF-7
# Protocol: as §1, §2, §3, §4
# T24 (bladder) cells = assay: MTT reduction assay, T24 cells; format: cell-based; conditions: Homo sapiens, T-24, 48 h incubation, read-out: IC50 ± SEM T24
# Protocol: as §1, §2, §3, §4
IC50 (DU-145 (prostate) cells),IC50 (MCF-7 (breast) cells),IC50 (T24 (bladder) cells),SMILES,IC50 [1],MSI: mean selective index [2],IC50 [2]
7.85 ± 0.6 µM,7.32 ± 0.36 µM,8.72 ± 0.41 µM,O=C1C2=C(C(=O)c3ccccc31)C(O)(c1cccs1)N1C(=N2)Sc2ccccc21 (centres unmarked) [Compound 25],12.8 ± 0.31 µM,1.60,–
10.8 ± 1.01 µM,7.46 ± 0.53 µM,13.4 ± 2.37 µM,O=C1C2=C(C(=O)c3ccccc31)C(O)(c1cccs1)N1C(=N2)Sc2cc(F)ccc21 (centres unmarked) [Compound 26],19.8 ± 0.83 µM,1.88,10.5 to 12.6 µM
7.99 ± 0.17 µM,5.83 ± 0.25 µM,6.85 ± 0.54 µM,CCCCCC1(O)C2=C(N=C3Sc4ccccc4N31)C(=O)c1ccccc1C2=O (centres unmarked) [Compound 13],8.55 ± 0.35 µM,1.24,–
9.59 ± 0.32 µM,6.83 ± 1.29 µM,4.65 ± 0.43 µM,CC1(O)C2=C(N=C3Sc4ccccc4N31)C(=O)c1ccccc1C2=O (centres unmarked) [Compound 11],10.7 ± 0.57 µM,1.52,–
19.9 ± 0.5 µM,8.62 ± 0.72 µM,9.29 ± 0.77 µM,O=C1C2=C(C(=O)c3ccccc31)C(O)(c1ccco1)N1C(=N2)Sc2ccccc21 (centres unmarked) [Compound 23],21.7 ± 0.27 µM,1.72,10.5 to 12.6 µM
9.04 ± 0.69 µM,6.84 ± 0.79 µM,8.42 ± 1.27 µM,CCCCCCCC1(O)C2=C(N=C3Sc4ccccc4N31)C(=O)c1ccccc1C2=O (centres unmarked) [Compound 14],7.28 ± 0.39 µM,0.90,–

# The remaining lines, values behind:
SMILES,IC50 (DU-145 (prostate) cells),IC50 (MCF-7 (breast) cells),IC50 (T24 (bladder) cells),IC50 [1],MSI: mean selective index [2],IC50 [2]
CCCCCCCC1(O)C2=C(N=C3Sc4cc(OC)ccc4N31)C(=O)c1ccccc1C2=O (centres unmarked) [Compound 22],6.62 ± 0.19 µM,3.52 ± 0.32 µM,5.95 ± 0.45 µM,5.97 ± 0.24 µM,1.11,–
CCCCCCCC1(O)C2=C(N=C3Sc4cc(C)ccc4N31)C(=O)c1ccccc1C2=O (centres unmarked) [Compound 18],7.55 ± 0.69 µM,7.12 ± 0.65 µM,5.6 ± 0.29 µM,6.02 ± 0.29 µM,0.89,–
COc1ccc2c(c1)SC1=NC3=C(C(=O)c4ccccc4C3=O)C(O)(c3ccco3)N12 (centres unmarked) [Compound 24],4.69 ± 0.33 µM,11.7 ± 0.65 µM,10.4 ± 1 µM,90.1 ± 1.21 µM,10.1,–
CCCCCC1(O)C2=C(N=C3Sc4cc(OC)ccc4N31)C(=O)c1ccccc1C2=O (centres unmarked) [Compound 21],7.43 ± 0.28 µM,4.63 ± 0.3 µM,7.09 ± 0.14 µM,11.3 ± 1.1 µM,1.78,–
"O=c1[nH]cc(F)c(=O)[nH]1 [5-Fluorouracil, 5-fluorouracil, reference compound]",–,–,–,–,–,7.8 µM
